The subject of experiment [1] is Kidins220. Kind of experiment: Kidins220 calpain processing induced by NMDAR overactivation in cortical neurons, immunoblot. As to conditions: inhibitor added 1 h before NMDA 100 μM + glycine 10 μM, 4 h; CiIII 20 μM, lactacystin 15 μM; Kid-Nt immunoblot. It is filed as cell-based, rat. Here is the method:
Figure 1 Approximate mapping of Kidins220 processing sites recognized by calpain after induction of excitotoxicity. (a) Immunoblot analysis of primary neuronal cultures (DIV 14) treated with high concentrations of NMDA (100 μM) and glycine (10 μM), herein indicated as NMDA, for 0–6 h. Kidins220 antibodies recognizing a C-terminal peptide (amino acids 1746–1762; Kid-Ct) or the N-terminal region (amino acids 1–402; Kid-Nt), or that specific for the protein neuronal-specific enolase (NSE) were used. Bands corresponding to endogenous full-length (FL) Kidins220 or its different processing N-terminal fragments (Nt-0/Nt-9) are indicated. […]
(a) Cell-membrane peptide Tat-K contains from the N- to the C-terminus amino acids 47–57 of the HIV-1 Tat protein (italic) followed by two proline linker residues and rat Kidins220 amino acids 1668–1681 (bold), which include the major calpain cleavage site (arrow). […] Results were analyzed by immunoblot with Kidins220 (Kid-Ct), spectrin and NSE antibodies. […] Primary cultures of neurons (DIV 14) were incubated with 5, 10 or 25 μM of FITC-labeled control peptide (FITC-Tat-S) for 2, 4 or 6 h and pictures were taken in a conventional fluorescence microscope. […] Cortical neurons were pre-incubated for 1 h with 10 or 25 μM of Tat-K (K) or Tat-S (S) before NMDA addition for 4 h and analyzed by immunoblot with Kidins220 (Kid-Ct), spectrin and NSE antibodies. […]

For experiment [2], the system named is Kidins220. Kind of experiment: In vitro digestion of neuronal protein extracts with purified calpain I, immunoblot (Kid-Ct). It is filed as biochemical, rat. As to conditions: calpain I 0-80 U/ml, 15 or 30 min, inhibitor 20 μM.
Experimental: (c) Protein extracts from cortical neurons subjected to in vitro digestion with purified calpain I (0, 20, 50 or 80 U/ml) for 15 or 30 min in the absence or presence of calpain inhibitor CiIII (20 μM).
Protein extracts from cortical neurons were subjected to in vitro digestion with purified calpain I (20 U/ml) for 15 min in the presence of peptides Tat-K (K) or Tat-S (S) (0.5 μM). Results were analyzed by immunoblot with Kidins220 (Kid-Ct), spectrin and NSE antibodies.
The next experiment relates to cortical neurons. Kind of experiment: Calcein-AM/propidium iodide staining of viable and dead neurons after excitotoxicity. As to conditions: peptide 25 μM pre-incubated 1 h, NMDA 4 h; mean ± S.E.M., n=7. Type of experiment: cell-based, rat. The method, then: Figure 5 Neuroprotective effect exerted by Tat-K transduction on excitotoxic neuronal death. (a) Effect of Tat-K on cell death induced by NMDAR overactivation. Primary cultures of cortical neurons (DIV 14) were pre-incubated for 1 h with Tat-S or Tat-K (25 μM) and treated with NMDA for 4 h or left untreated. Next, viable and dead cells were visualized by simultaneous fluorescence staining with calcein-AM (1 μM; green) and propidium iodide (PI; 0.5 mM; red), respectively, for 15 min at 37 °C in the dark. Representative images for each condition are shown. Scale bar, 25 μm. (b) Quantitation of Tat-K effect on the relative percentage of viable/dead neurons found in excitotoxic conditions. A minimum of five random fields containing at least 500 neurons each were counted per experimental condition. […] Statistical significance was determined by paired Student's t-test (**P<0.01). (c) Quantitation of the effect of Tat-K on neuronal viability after induction of excitotoxicity. […] Neuronal viability was established by MTT reduction assay after subtracting the contribution of the glial cells present in the mixed cultures to absorbance as indicated in the Methods section. […] Statistical significance was determined by paired Student's t-test (*P<0.05, **P<0.01) […]

Where a SMILES comes first, the peptide text is derived from it. Where no end group is shown, it is not given here. The star is where a group is joined. Cbz = O=C(OCc1ccccc1)*

For the molecule `CC(C)[C@H](NC(=O)OCc1ccccc1)C(=O)N[C@H](C=O)Cc1ccccc1` [CiIII, carbobenzoxy–valinyl–phenylalaninal] (Cbz-Val-Phe-aldehyde), the “Effect on NMDA-induced Kidins220 processing (Nt-1/Nt-9 production)” value in the experiment with Kidins220 [1] was “strongly prevented NMDA-induced processing”. For the same molecule, the “Effect on calpain I cleavage of Kidins220 (decrease of FL-Kidins220 and accumulation of Ct-0)” value in the experiment with Kidins220 [2] is “inhibited”.
Regarding YGRKKRRQRRRPPLNRTPSTVTLNNNT [Tat-K], in the experiment with cortical neurons, the “Viable neurons (calcein-AM) relative to total number of neurons” value was 40±7%.
As for YGRKKRRQRRRPPNTTTLSNLPTNVRN [Tat-S], the “Viable neurons (calcein-AM) relative to total number of neurons” value in the experiment with cortical neurons is 23±7%.

The values are drawn from article PMC4632323, “Development of a neuroprotective peptide that preserves survival pathways by preventing Kidins220/ARMS calpain processing induced by excitotoxicity” (Cell Death & Disease, 2015).
